# In patent publication US20230111310A1, “CARBOXYLIC ACID DERIVATIVE-SUBSTITUTED IMINO ARYL COMPOUND, PREPARATION METHOD THEREFOR, HERBICIDAL COMPOSITION AND USE THEREOF” (Qingdao Kingagroot Chemical Compound Co., Ltd., priority 2020, published 2023):
# How the values were obtained:
# Test in all cases: Weeding effect in post-emergence stage
# Assay type in all cases: in vivo
# Conditions in all cases: fresh weight control rate level
# Echinochloa crusgalli = test system: Echinochloa crusgalli
# In short: (§1)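 Read-out is growth control rate, counted 3 weeks post-spray and averaged over three repeats. Greenhouse plants at the 2-3 leaf stage received spray-tower application at 500, 250, 125, 60, 30, 15 or 7.5 g/ha, with methyl oleate EC (1.5 liter/ha) and Tween 80 added.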
# Setaria viridis = test system: Setaria viridis
# In short: as §1
# Eleusine indica = test system: Eleusine indica
# In short: as §1
# Abutilon theophrasti = test system: Abutilon theophrasti
# In short: as §1
# Digitaria sanguinalis = test system: Digitaria sanguinalis
# In short: as §1
# Alopecurus japonicus = test system: Alopecurus japonicus
# In short: as §1
Structure (SMILES),"Weeding effect in post-emergence stage, Echinochloa crusgalli (level) (Echinochloa crusgalli; Dose 15 g/ha)","Weeding effect in post-emergence stage, Setaria viridis (level) (Setaria viridis; Dose 15 g/ha)","Weeding effect in post-emergence stage, Eleusine indica (level) (Eleusine indica; Dose 15 g/ha)","Weeding effect in post-emergence stage, Abutilon theophrasti (level) (Abutilon theophrasti; Dose 15 g/ha)","Weeding effect in post-emergence stage, Digitaria sanguinalis (level) (Digitaria sanguinalis; Dose 15 g/ha)","Weeding effect in post-emergence stage, Alopecurus japonicus (level) (Alopecurus japonicus; Dose 15 g/ha)",other results
CC(=NOC(=O)C(C)ON=Cc1cc(-n2c(=O)cc(C(F)(F)F)n(C)c2=O)c(F)cc1Cl)C(C)(C)C (stereo not drawn) [Compound 449],5 (Level 5: growth control rate is above 85%),5 (Level 5: growth control rate is above 85%),5 (Level 5: growth control rate is above 85%),5 (Level 5: growth control rate is above 85%),5 (Level 5: growth control rate is above 85%),5 (Level 5: growth control rate is above 85%),
CC(=NOC(=O)C(C)ON=Cc1cc(-n2c(=O)cc(C(F)(F)F)n(C)c2=O)c(F)cc1Cl)C1CC1 (stereo not drawn) [Compound 450],5 (Level 5: growth control rate is above 85%),5 (Level 5: growth control rate is above 85%),5 (Level 5: growth control rate is above 85%),5 (Level 5: growth control rate is above 85%),5 (Level 5: growth control rate is above 85%),5 (Level 5: growth control rate is above 85%),
CC(=NC(=O)C(C)ON=Cc1cc(-n2c(=O)cc(C(F)(F)F)n(C)c2=O)c(F)cc1Cl)c1ccccc1 (stereo not drawn) [Compound 453],,,,,,,"Weeding effect in post-emergence stage, Echinochloa crusgalli (level) (Echinochloa crusgalli; Dose 30 g/ha): 5 (Level 5: growth control rate is above 85%); Weeding effect in post-emergence stage, Setaria viridis (level) (Setaria viridis; Dose 30 g/ha): 5 (Level 5: growth control rate is above 85%); Weeding effect in post-emergence stage, Eleusine indica (level) (Eleusine indica; Dose 30 g/ha): 5 (Level 5: growth control rate is above 85%); Weeding effect in post-emergence stage, Abutilon theophrasti (level) (Abutilon theophrasti; Dose 30 g/ha): 5 (Level 5: growth control rate is above 85%); Weeding effect in post-emergence stage, Digitaria sanguinalis (level) (Digitaria sanguinalis; Dose 30 g/ha): 5 (Level 5: growth control rate is above 85%); Weeding effect in post-emergence stage, Alopecurus japonicus (level) (Alopecurus japonicus; Dose 30 g/ha): 5 (Level 5: growth control rate is above 85%)"
CC(O/N=C/c1cc(-n2c(=O)cc(C(F)(F)F)n(C)c2=O)c(F)cc1Cl)C(=O)N1CCOCC1 (stereo not drawn) [Compound 454],,,,,,,"Weeding effect in post-emergence stage, Echinochloa crusgalli (level) (Echinochloa crusgalli; Dose 60 g/ha): 5 (Level 5: growth control rate is above 85%); Weeding effect in post-emergence stage, Setaria viridis (level) (Setaria viridis; Dose 60 g/ha): 5 (Level 5: growth control rate is above 85%); Weeding effect in post-emergence stage, Eleusine indica (level) (Eleusine indica; Dose 60 g/ha): 5 (Level 5: growth control rate is above 85%); Weeding effect in post-emergence stage, Abutilon theophrasti (level) (Abutilon theophrasti; Dose 60 g/ha): 5 (Level 5: growth control rate is above 85%); Weeding effect in post-emergence stage, Digitaria sanguinalis (level) (Digitaria sanguinalis; Dose 60 g/ha): 5 (Level 5: growth control rate is above 85%); Weeding effect in post-emergence stage, Alopecurus japonicus (level) (Alopecurus japonicus; Dose 60 g/ha): 5 (Level 5: growth control rate is above 85%)"
COC(=O)CCCO/N=C/c1cc(-n2c(=O)cc(C(F)(F)F)n(C)c2=O)c(F)cc1Cl [Compound 485],5 (Level 5: growth control rate is above 85%),5 (Level 5: growth control rate is above 85%),5 (Level 5: growth control rate is above 85%),5 (Level 5: growth control rate is above 85%),5 (Level 5: growth control rate is above 85%),5 (Level 5: growth control rate is above 85%),
CCOC(=O)C(CC(F)(F)F)O/N=C/c1cc(-n2c(=O)cc(C(F)(F)F)n(C)c2=O)c(F)cc1Cl (stereo not drawn) [Compound 486],5 (Level 5: growth control rate is above 85%),5 (Level 5: growth control rate is above 85%),5 (Level 5: growth control rate is above 85%),5 (Level 5: growth control rate is above 85%),5 (Level 5: growth control rate is above 85%),5 (Level 5: growth control rate is above 85%),
C=CCC(O/N=C/c1cc(-n2c(=O)cc(C(F)(F)F)n(C)c2=O)c(F)cc1Cl)C(=O)OC (stereo not drawn) [Compound 487],5 (Level 5: growth control rate is above 85%),5 (Level 5: growth control rate is above 85%),5 (Level 5: growth control rate is above 85%),5 (Level 5: growth control rate is above 85%),5 (Level 5: growth control rate is above 85%),5 (Level 5: growth control rate is above 85%),
COC(=O)C(O/N=C/c1cc(-n2c(=O)cc(C(F)(F)F)n(C)c2=O)c(F)cc1Cl)C1CCC1 (stereo not drawn) [Compound 488],5 (Level 5: growth control rate is above 85%),5 (Level 5: growth control rate is above 85%),5 (Level 5: growth control rate is above 85%),5 (Level 5: growth control rate is above 85%),5 (Level 5: growth control rate is above 85%),5 (Level 5: growth control rate is above 85%),
COC(=O)C(O/N=C/c1cc(-n2c(=O)cc(C(F)(F)F)n(C)c2=O)c(F)cc1Cl)C1CCCC1 (stereo not drawn) [Compound 489],5 (Level 5: growth control rate is above 85%),5 (Level 5: growth control rate is above 85%),5 (Level 5: growth control rate is above 85%),5 (Level 5: growth control rate is above 85%),5 (Level 5: growth control rate is above 85%),5 (Level 5: growth control rate is above 85%),
COC(=O)C(O/N=C/c1cc(-n2c(=O)cc(C(F)(F)F)n(C)c2=O)c(F)cc1Cl)C1CCCCC1 (stereo not drawn) [Compound 490],5 (Level 5: growth control rate is above 85%),5 (Level 5: growth control rate is above 85%),5 (Level 5: growth control rate is above 85%),5 (Level 5: growth control rate is above 85%),5 (Level 5: growth control rate is above 85%),5 (Level 5: growth control rate is above 85%),
CCSC(=O)C(C)O/N=C/c1cc(-n2c(=O)n(C)c(=O)n(C)c2=O)c(F)cc1Cl (stereo not drawn) [Compound 491],5 (Level 5: growth control rate is above 85%),5 (Level 5: growth control rate is above 85%),5 (Level 5: growth control rate is above 85%),5 (Level 5: growth control rate is above 85%),5 (Level 5: growth control rate is above 85%),5 (Level 5: growth control rate is above 85%),
COC(=O)C(OC)O/N=C/c1cc(-n2c(=O)cc(C(F)(F)F)n(C(OC)C(=O)OC)c2=O)c(F)cc1Cl (stereo not drawn) [Compound 493],5 (Level 5: growth control rate is above 85%),5 (Level 5: growth control rate is above 85%),5 (Level 5: growth control rate is above 85%),5 (Level 5: growth control rate is above 85%),5 (Level 5: growth control rate is above 85%),5 (Level 5: growth control rate is above 85%),
COC(=O)C(OC)(OC)O/N=C/c1cc(-n2c(=O)cc(C(F)(F)F)n(C)c2=O)c(F)cc1Cl [Compound 494],5 (Level 5: growth control rate is above 85%),5 (Level 5: growth control rate is above 85%),5 (Level 5: growth control rate is above 85%),5 (Level 5: growth control rate is above 85%),5 (Level 5: growth control rate is above 85%),5 (Level 5: growth control rate is above 85%),
